One may read the melting point as the temperature of the solid-liquid transition.

The source of these data is a melting point compilation (Tetko et al.; mined from patent text by program, amines drawn as free bases though some values may be those of a salt).

SMILES strings stand for the structures. Bounds are passed on as bounds.

Regarding `CC(C)[C@H](NC(=O)OCc1ccccc1)C(=O)NC(Cc1ccccc1)C(O)C(Cc1ccccc1)NC(=O)[C@@H](NC(=O)OCc1ccccn1)C(C)C` (stereo partly specified), the melting point is 194 to 195 °C.

`CCCOc1ccccc1-c1nc2[nH]c(=O)c(=O)[nH]c2c(=O)[nH]1` came in with a melting point of 312 to 315 °C.

`CC(C)Nc1cccnc1N1CCN(C(=O)c2ccc(C(=O)NCCOCCO)cc2)CC1` displayed a melting point of 116 °C.

Turning to `O=C(CBr)c1ccc(OCCO)cc1`, the melting point came to 78 °C.

In turn, `Cc1cnc2[nH]cc(/C=C3\N=C(N4CCCCCC4)NC3=O)c2c1` had a melting point of 324 to 326 °C.

`COc1ccc(CNc2nccc(-c3c[nH]nc3-c3ccc(F)cc3)n2)cc1`: the melting point was 183 to 185 °C.

In the case of `O=c1ccc(-c2ccncn2)c[nH]1`, the melting point is over 250 °C.

Compound `CCC(=O)c1ccc(OC(C)(C)C(=O)OC)cc1` showed a melting point of 47 to 49 °C.

`c1ccc(Cn2cnc(-c3cnc(-c4ccccc4)nc3)c2)cc1` came in with a melting point of 195 °C.

In turn, `Cc1ccc(OCc2nc(N)c3nccnc3n2)cc1` displayed a melting point of 225 to 227 °C.

Take `O=c1ccn(-c2cccc(C(F)(F)F)c2)nc1-c1ccsc1-c1ccccc1`: the melting point is 167 to 168 °C.

For `OCC1OC(n2cnc3c(Nc4ccccc4Cl)ccnc32)C(O)C1O` (stereo unspecified), the melting point amounted to 207 °C.

`Cc1c(/C=N/OCCCOc2ccc(CC(=O)O)cc2)c2ccccc2n1C` yielded a melting point of 106 to 108 °C.

In turn, `Cc1cn(N=Cc2ccccc2)cn1` had a melting point of 91 to 93 °C.

As to `COc1cc(-c2nn(C)c(C(F)(F)F)c2Br)c(F)cc1Cl`, the melting point was 85 to 86 °C.

`CCN1CCC(c2cc3ccc(C)cc3c(=O)[nH]2)CC1` returned a melting point of 239 to 241 °C.

`CC[Si](CC)(CC)CSc1cc(C(C)(C)C)c(O)c(C(C)(C)C)c1` displayed a melting point of 58 to 60 °C.

In turn, `N#CC(N)=C(C#N)N=C=CCc1cnn(-c2c(Cl)cc(C(F)(F)F)cc2Cl)n1` displayed a melting point of 207 to 209 °C.

`COC(=O)/C(=C/c1cccc(C=O)c1)NC(=O)OCc1ccccc1`: the melting point lay within 77 to 83 °C.

With `Oc1nn(Cc2ccccc2)cc1CCCC1OCCO1`, the melting point fell in the range of 93 to 94 °C.

Consider `Cn1nc(C(F)(F)F)cc1Oc1cc(C#N)cc(-n2ccc(C(F)(F)F)n2)c1`, for which the melting point is 116 to 117 °C.

As to `Cc1cc(OC(=O)c2ccccc2)cc(C)c1O`, the melting point fell in the range of 140 to 141 °C.

With `O=C1Nc2ccccc2N(C(=O)CN2C(=O)CCCC2=O)C2CCC(Cc3ccccc3)C12` (stereo unspecified), the melting point fell in the range of 220 to 221 °C.

Compound `CCOC(=O)N(CC)c1c(OC)cc(Cc2cnc(N)nc2N)cc1OC` registered a melting point of 165 to 167 °C.

Compound `Cc1cc(C2CCCC2)c(O)c(C2CCCC2)c1` yielded a melting point of 78 °C.

Compound `CNC(=O)Nc1ccc(-c2ccncc2)c(C)n1` yielded a melting point of 213 to 214 °C.

`NC(=O)c1cccc(-c2ccc(Oc3ccccc3)cc2)n1`: the melting point was 178 to 180 °C.

Take `CCOC(=O)c1c[nH]c2nc(Nc3ccc(C)c(Cl)c3)nn2c1=O`: the melting point is over 340 °C.

Compound `CNC(=S)C1(c2cccnc2)CCCCS1` (stereo unspecified) came in with a melting point of 131 °C.

The compound `COc1ccc(-c2oncc2CO)cc1` displayed a melting point of 57 to 58 °C.

`Cc1cc(C(=O)O)nc(-c2ccc([N+](=O)[O-])cc2)c1` showed a melting point of 216 to 219 °C.

As to `COc1ccc(CNc2ccccc2C(=O)Nc2ccc(F)c(C(F)(F)F)c2)cn1`, the melting point fell in the range of 114 to 115 °C.

`CCOC(=O)c1nc2ccc(N)cc2c(=O)[nH]1` returned a melting point of 233 to 235 °C.

Consider `CC(C)(C)c1ccc(-c2ccc(COc3cccc4cc(NS(=O)(=O)C(F)(F)F)ccc34)c(F)c2)cc1`, for which the melting point lay in the range of 162 to 164 °C.

Regarding `O=c1oc2cc(Cl)cnc2n1CO`, the melting point is 137 to 139 °C.

`CCOC(=O)c1c(C)nc2c(nc(C)n2C)c1Cl` returned a melting point of 73 to 75 °C.

Turning to `COc1cc(OC)cc(-c2ncn(CCO)c2-c2ccc(OC)c(F)c2)c1`, the melting point is 202 to 204 °C.

Turning to `CN(C)c1ccccc1CSC1=NC(=O)C(C)(C)N1`, the melting point lay within 113 to 115 °C.

Take `CCCc1nc2c(N)nc3ccccc3c2n1CC1(C(N)=O)CCC1`: the melting point is 234 to 237 °C.

In turn, `Cc1cccc(C(=O)c2ccc(Cl)cc2)c1O` had a melting point of 55 to 58 °C.

In the case of `Cc1cc(C2=NN(C(=O)NC3CC3)C(C)Cc3cc4c(cc32)OCO4)ccc1[N+](=O)[O-]` (stereo unspecified), the melting point is 171 to 175 °C.

`Cc1ccc(S(=O)(=O)NC(=O)OCCc2ccc(-n3c(CCCc4ccccn4)nc4cc(C(F)(F)F)c(Cl)cc43)cc2)cc1` gave a melting point of 193 °C.

Compound `CC(c1oc2ccccc2c(=O)c1-c1cccc(F)c1)n1nc(-c2csc3ccccc23)c2c(N)ncnc21` (stereo unspecified) gave a melting point of 226 to 229 °C.

`Cc1ncc2c(c1C#N)COc1ccccc1C2=O`: the melting point fell in the range of 124 to 126 °C.

Take `CC(C)C[C@@H]1N[C@@H](c2ccc(C#N)cc2)[C@H]2C(=O)N(Cc3ccccc3)C(=O)[C@H]21` (racemic): the melting point fell in the range of 152 to 153 °C.

Compound `Cc1c(C)c2c(c(C)c1N)CC(C)(CN1CCC(CCO)CC1)O2` (stereo unspecified) displayed a melting point of 94 to 95 °C.

`CCOC(=O)/C=C/c1ccc(OCCOC)cc1NC(=O)c1ccc(Cl)cc1Cl` gave a melting point of 170 °C.

Regarding `CCCc1nc2c(N)nc3cccnc3c2n1CCCC(C)N(OC)C(C)=O` (stereo unspecified), the melting point lay in the range of 158 to 159 °C.

`Cc1cc(=O)n2cccc(OCc3ccccc3)c2n1` returned a melting point of 110 to 112 °C.

Compound `Cn1cccc1C(=O)NCCN1CCC(Nc2nc3ccccc3n2Cc2ccc(CO)o2)CC1` registered a melting point of 182 °C.

Compound `CN1C(=O)CC[C@]2(C)c3ccc(-c4ccc(O)c(C=O)c4)cc3CC[C@@H]12` came in with a melting point of 184 to 187 °C.

The compound `CN(C(=O)c1cc2c(cn1)[nH]c1ccccc12)c1ccccc1` returned a melting point of 237 to 240 °C.

For the compound `CC1(C)CN(Cc2cc(F)ccc2F)c2cc(I)cnc2N1`, the melting point fell in the range of 168 to 169 °C.

The compound `Cc1cc(-c2nc3cccnn3c2-c2ccnc(NC(=O)c3ccc(Cl)nc3)c2)ccc1F` came in with a melting point of 225 to 226 °C.

In turn, `Cc1cc2c(cc1C(=O)N=C(N)N)S(=O)(=O)CC2(C)O` (stereo unspecified) gave a melting point of 243 to 245 °C.

`CC(=NO)C(=O)C(C)(C)C` returned a melting point of 107 to 110 °C.

Consider `CCC12CCC3=C(CCc4cc(OC(C)=O)ccc43)C1=CCC2=O` (stereo unspecified), for which the melting point was in the range of 122 to 124 °C.

`C=CCONC(=O)c1nc(-c2ccc(C)cc2)cc(N)c1Cl` showed a melting point of 177 to 179 °C.

Compound `O=c1[nH]cc(Cc2ccccc2)cc1Br` gave a melting point of 151 to 152 °C.

Compound `C=CCOc1ccccc1-c1ccc(C(N)=O)c(=O)[nH]1` showed a melting point of 210 to 212 °C.

`Cc1cc2c(C)nc(N)nc2o1` came in with a melting point of 263 to 265 °C.

Take `C(#Cc1ccsc1)C1=CCN(Cc2c[nH]c3ncccc23)CC1`: the melting point was in the range of 203 to 205 °C.

In the case of `Cc1cc(NC(=S)Nc2cc(Cl)ccc2C)sn1`, the melting point is 187 to 188 °C.

With `CSC(=S)NN=Cc1ccccn1`, the melting point lay in the range of 171 to 173 °C.

`O=c1c(Cl)c(OCc2ccc(Cl)cc2)cnn1CCCBr`: the melting point lay in the range of 83 to 87 °C.

Turning to `C=CCOc1ccc(C(=O)c2ccccc2)cc1`, the melting point is 71 °C.
